Results as given in ChEMBL document CHEMBL1140151, “Alpha,beta-methylene-2'-deoxynucleoside 5'-triphosphates as noncleavable substrates for DNA polymerases: isolation, characterization, and stability studies of novel 2'-deoxycyclonucleosides, 3,5'-cyclo-dG, and 2,5'-cyclo-dT” (J Med Chem, 2008).
Activity calls are given as the source filed them. The rule behind the calls is not given here.

Assays:
DNA polymerase beta [1] = molecular target: T1, DNA polymerase beta (Homo sapiens, UniProt P06746); assay: Inhibition of human DNA polymerase beta
DNA polymerase beta [2] = molecular target: T1, DNA polymerase beta; assay: Inhibition of human DNA polymerase beta assessed as inhibition of dCTP incorporation by gap filling assay

Ki (DNA polymerase beta [1]) [nM] | Activity (DNA polymerase beta [2]) | SMILES
1000 | – | Nc1nc2c(ncn2[C@H]2C[C@H](O)[C@@H](COP(=O)(O)CP(=O)(O)OP(=O)(O)O)O2)c(=O)[nH]1
900 | Active | Nc1ccn([C@H]2C[C@H](O)[C@@H](COP(=O)(O)CP(=O)(O)OP(=O)(O)O)O2)c(=O)n1
5000 | – | Nc1ncnc2c1ncn2[C@H]1C[C@H](O)[C@@H](COP(=O)(O)CP(=O)(O)OP(=O)(O)O)O1

SMILES | Ki (DNA polymerase beta [1]) [nM] | Activity (DNA polymerase beta [2])
Cc1cn([C@H]2C[C@H](O)[C@@H](COP(=O)(O)CP(=O)(O)OP(=O)(O)O)O2)c(=O)[nH]c1=O | 600 | –
